Measured values reported in the CheMixHub viscosity set.
± gives the uncertainty stated by the source.

Test: xn = mol fraction of the nth substance listed

COCCOCCO + CCOC(=O)OCC
298.15 K, 101.33 kPa
Conditions | viscosity [mPa·s]
x1 = 0.0177 | 0.765 ± 0.008
x1 = 0.0409 | 0.784 ± 0.009
x1 = 0.0525 | 0.794 ± 0.009
x1 = 0.0688 | 0.809 ± 0.009
x1 = 0.0808 | 0.819 ± 0.009
x1 = 0.0974 | 0.834 ± 0.009
x1 = 0.1182 | 0.856 ± 0.009
x1 = 0.1376 | 0.878 ± 0.009
x1 = 0.1665 | 0.911 ± 0.01
x1 = 0.1973 | 0.949 ± 0.01
x1 = 0.2247 | 0.98 ± 0.01
x1 = 0.26 | 0.984 ± 0.1
x1 = 0.3011 | 1.095 ± 0.011
x1 = 0.3362 | 1.148 ± 0.012
x1 = 0.4104 | 1.282 ± 0.013
x1 = 0.438 | 1.337 ± 0.013
x1 = 0.4644 | 1.394 ± 0.014
x1 = 0.4835 | 1.436 ± 0.014
x1 = 0.5151 | 1.511 ± 0.015
x1 = 0.5529 | 1.61 ± 0.016
x1 = 0.5929 | 1.721 ± 0.018
x1 = 0.6445 | 1.874 ± 0.019
x1 = 0.6774 | 1.978 ± 0.02
x1 = 0.7326 | 2.167 ± 0.023
x1 = 0.7642 | 2.295 ± 0.024
x1 = 0.8034 | 2.456 ± 0.026
x1 = 0.8312 | 2.576 ± 0.028
x1 = 0.861 | 2.709 ± 0.029
x1 = 0.8942 | 2.87 ± 0.032
x1 = 0.9328 | 3.065 ± 0.034
x1 = 0.9487 | 3.15 ± 0.035
x1 = 0.9554 | 3.189 ± 0.036
x1 = 0.9613 | 3.221 ± 0.036

Cc1ccc(Cl)cc1 + CCOC(=O)c1ccccc1
viscosity [mPa·s], 101 kPa
Conditions | 303.15 K | 313.15 K
x2 = 0.0536 | 0.745 ± 0.012 | 0.65 ± 0.011
x2 = 0.1068 | 0.729 ± 0.012 | 0.632 ± 0.011
x2 = 0.1858 | 0.73 ± 0.012 | 0.629 ± 0.011
x2 = 0.2507 | 0.751 ± 0.013 | 0.644 ± 0.011
x2 = 0.3392 | 0.806 ± 0.013 | 0.686 ± 0.012
x2 = 0.4157 | 0.876 ± 0.014 | 0.739 ± 0.012
x2 = 0.4913 | 0.959 ± 0.015 | 0.801 ± 0.013
x2 = 0.592 | 1.092 ± 0.017 | 0.904 ± 0.015
x2 = 0.6657 | 1.201 ± 0.019 | 0.991 ± 0.016
x2 = 0.762 | 1.359 ± 0.021 | 1.109 ± 0.018
x2 = 0.8333 | 1.484 ± 0.023 | 1.206 ± 0.019
x2 = 0.907 | – | 1.315 ± 0.02
x2 = 0.9071 | 1.623 ± 0.025 | –
x2 = 0.9524 | 1.713 ± 0.026 | 1.385 ± 0.021

COCCOCCO + CCOC(C)(C)C
viscosity [mPa·s], 101 kPa
Conditions | 293.15 K | 298.15 K | 303.15 K
x2 = 0.0501 | 3.519 ± 0.051 | 3.231 ± 0.047 | 2.865 ± 0.042
x2 = 0.1 | 3.158 ± 0.045 | 2.906 ± 0.042 | 2.589 ± 0.037
x2 = 0.1459 | 2.847 ± 0.04 | 2.627 ± 0.037 | 2.351 ± 0.034
x2 = 0.1998 | 2.518 ± 0.035 | 2.328 ± 0.033 | 2.097 ± 0.029
x2 = 0.2556 | 2.218 ± 0.03 | 2.06 ± 0.028 | 1.862 ± 0.026
x2 = 0.3031 | 1.991 ± 0.027 | 1.855 ± 0.025 | 1.683 ± 0.023
x2 = 0.3521 | 1.784 ± 0.024 | 1.669 ± 0.022 | 1.52 ± 0.021
x2 = 0.4004 | 1.605 ± 0.021 | 1.506 ± 0.02 | 1.377 ± 0.018
x2 = 0.4511 | 1.438 ± 0.019 | 1.355 ± 0.018 | 1.244 ± 0.017
x2 = 0.4998 | 1.299 ± 0.017 | 1.227 ± 0.016 | 1.13 ± 0.015
x2 = 0.5628 | 1.142 ± 0.015 | 1.082 ± 0.014 | 1.001 ± 0.013
x2 = 0.5997 | 1.062 ± 0.014 | 1.007 ± 0.013 | 0.934 ± 0.012
x2 = 0.6621 | 0.942 ± 0.012 | 0.894 ± 0.012 | 0.833 ± 0.011
x2 = 0.6997 | 0.879 ± 0.011 | 0.834 ± 0.011 | 0.779 ± 0.01
x2 = 0.7411 | 0.816 ± 0.011 | 0.773 ± 0.01 | 0.725 ± 0.01
x2 = 0.7995 | 0.736 ± 0.01 | 0.697 ± 0.009 | 0.657 ± 0.009
x2 = 0.8401 | 0.687 ± 0.009 | 0.651 ± 0.009 | 0.616 ± 0.008
x2 = 0.8998 | 0.623 ± 0.008 | 0.591 ± 0.008 | 0.56 ± 0.008
x2 = 0.9498 | 0.575 ± 0.008 | 0.545 ± 0.007 | 0.518 ± 0.007

CCC#N + CCOC(C)=O
303.15 K, 101.33 kPa
Conditions | viscosity [mPa·s]
x1 = 0.1019 | 0.4034 ± 0.0035
x1 = 0.1916 | 0.4041 ± 0.0035
x1 = 0.2921 | 0.4038 ± 0.0035
x1 = 0.3979 | 0.4025 ± 0.0035
x1 = 0.4953 | 0.4012 ± 0.0035
x1 = 0.5954 | 0.3976 ± 0.0035
x1 = 0.6959 | 0.3954 ± 0.0035
x1 = 0.7981 | 0.3935 ± 0.0035
x1 = 0.9006 | 0.3915 ± 0.0035

CCCCCCCCCCO + CCOC(C)=O
viscosity [mPa·s], 101.33 kPa
Conditions | x2 = 0.1664 | x2 = 0.3099 | x2 = 0.4348 | x2 = 0.545 | x2 = 0.6423 | x2 = 0.7293 | x2 = 0.8073 | x2 = 0.8778 | x2 = 0.9418
298.15 K | 6.2 ± 0.66 | 3.758 ± 0.4 | 2.442 ± 0.26 | 1.698 ± 0.18 | 1.238 ± 0.14 | 0.936 ± 0.1 | 0.809 ± 0.089 | 0.657 ± 0.073 | 0.521 ± 0.058
303.15 K | 5.263 ± 0.56 | 3.279 ± 0.35 | 2.171 ± 0.23 | 1.533 ± 0.17 | 1.235 ± 0.14 | 0.864 ± 0.095 | 0.719 ± 0.08 | 0.613 ± 0.068 | 0.497 ± 0.056
308.15 K | 4.52 ± 0.49 | 2.876 ± 0.31 | 1.935 ± 0.21 | 1.384 ± 0.15 | 1.032 ± 0.11 | 0.796 ± 0.088 | 0.647 ± 0.072 | 0.583 ± 0.065 | 0.477 ± 0.054

Cc1ccccc1C + CCOC(C)=O
Conditions | viscosity [mPa·s]
298.15 K, 101 kPa, x2 = 0.0459 | 0.74 ± 0.005
298.15 K, 101 kPa, x2 = 0.1515 | 0.698 ± 0.005
298.15 K, 101 kPa, x2 = 0.2504 | 0.661 ± 0.005
298.15 K, 101 kPa, x2 = 0.349 | 0.625 ± 0.005
298.15 K, 101 kPa, x2 = 0.4636 | 0.586 ± 0.005
298.15 K, 101 kPa, x2 = 0.4948 | 0.576 ± 0.005
298.15 K, 101 kPa, x2 = 0.5519 | 0.557 ± 0.005
298.15 K, 101 kPa, x2 = 0.6488 | 0.527 ± 0.005
298.15 K, 101 kPa, x2 = 0.7509 | 0.496 ± 0.004
298.15 K, 101 kPa, x2 = 0.8487 | 0.468 ± 0.004
298.15 K, 101 kPa, x2 = 0.9146 | 0.45 ± 0.004
303.15 K, 101.32 kPa, x2 = 0.0599 | 0.679 ± 0.018
303.15 K, 101.32 kPa, x2 = 0.1789 | 0.638 ± 0.017
303.15 K, 101.32 kPa, x2 = 0.2918 | 0.601 ± 0.016
303.15 K, 101.32 kPa, x2 = 0.4303 | 0.557 ± 0.015
303.15 K, 101.32 kPa, x2 = 0.4994 | 0.535 ± 0.014
303.15 K, 101.32 kPa, x2 = 0.5537 | 0.52 ± 0.014
303.15 K, 101.32 kPa, x2 = 0.6001 | 0.507 ± 0.013
303.15 K, 101.32 kPa, x2 = 0.6951 | 0.483 ± 0.013
303.15 K, 101.32 kPa, x2 = 0.7859 | 0.457 ± 0.012
303.15 K, 101.32 kPa, x2 = 0.873 | 0.437 ± 0.012
303.15 K, 101.32 kPa, x2 = 0.9583 | 0.414 ± 0.011
308.15 K, 101 kPa, x2 = 0.0459 | 0.643 ± 0.005
308.15 K, 101 kPa, x2 = 0.1515 | 0.61 ± 0.005
308.15 K, 101 kPa, x2 = 0.2504 | 0.579 ± 0.005
308.15 K, 101 kPa, x2 = 0.349 | 0.551 ± 0.005
308.15 K, 101 kPa, x2 = 0.4636 | 0.518 ± 0.004
308.15 K, 101 kPa, x2 = 0.4948 | 0.51 ± 0.004
308.15 K, 101 kPa, x2 = 0.5519 | 0.495 ± 0.004
308.15 K, 101 kPa, x2 = 0.6488 | 0.47 ± 0.004
308.15 K, 101 kPa, x2 = 0.7509 | 0.444 ± 0.004
308.15 K, 101 kPa, x2 = 0.8487 | 0.421 ± 0.004
308.15 K, 101 kPa, x2 = 0.9146 | 0.406 ± 0.004
313.15 K, 101.32 kPa, x2 = 0.2056 | 0.565 ± 0.015
313.15 K, 101.32 kPa, x2 = 0.4079 | 0.508 ± 0.013
313.15 K, 101.32 kPa, x2 = 0.5023 | 0.483 ± 0.013
313.15 K, 101.32 kPa, x2 = 0.5988 | 0.459 ± 0.012
313.15 K, 101.32 kPa, x2 = 0.8018 | 0.411 ± 0.011

OCCOCCOCCO + CCOC(C)=O
101 kPa
Conditions | viscosity [mPa·s]
298.15 K, x2 = 0.1482 | 22.05 ± 0.31
308.15 K, x2 = 0.0466 | 18.65 ± 0.31

Cl[Si](Cl)(Cl)Cl + CCOC(C)OCC
viscosity [mPa·s], 101 kPa
Conditions | 303.1 K | 313.1 K
x2 = 0.13 | 0.45 ± 0.019 | 0.41 ± 0.017
x2 = 0.2026 | 0.45 ± 0.019 | 0.413 ± 0.017
x2 = 0.3244 | 0.459 ± 0.019 | 0.421 ± 0.018
x2 = 0.4102 | 0.475 ± 0.02 | 0.427 ± 0.018
x2 = 0.4927 | 0.492 ± 0.02 | 0.442 ± 0.018
x2 = 0.5909 | 0.515 ± 0.021 | 0.461 ± 0.019
x2 = 0.6377 | 0.534 ± 0.022 | 0.476 ± 0.02
x2 = 0.6703 | 0.538 ± 0.022 | 0.484 ± 0.02
x2 = 0.71 | 0.552 ± 0.023 | 0.49 ± 0.02
x2 = 0.7457 | 0.541 ± 0.022 | 0.481 ± 0.02
x2 = 0.8082 | 0.52 ± 0.021 | 0.467 ± 0.019
x2 = 0.8385 | 0.492 ± 0.02 | 0.447 ± 0.019
x2 = 0.8813 | 0.456 ± 0.019 | 0.41 ± 0.017
x2 = 0.9655 | 0.416 ± 0.017 | 0.375 ± 0.016

c1ccc(Oc2ccccc2)cc1 + CCOCC
298.15 K, 101 kPa
Conditions | viscosity [mPa·s]
x2 = 0.0704 | 3.158 ± 0.042
x2 = 0.1318 | 2.737 ± 0.036
x2 = 0.2193 | 2.153 ± 0.028
x2 = 0.3297 | 1.631 ± 0.021
x2 = 0.4245 | 1.258 ± 0.017
x2 = 0.5102 | 0.9926 ± 0.013
x2 = 0.6076 | 0.7614 ± 0.01
x2 = 0.7088 | 0.5733 ± 0.0077
x2 = 0.7826 | 0.4552 ± 0.0062
x2 = 0.9092 | 0.3106 ± 0.0045

c1ccc(Oc2ccccc2)cc1 + CCOc1ccccc1
298.15 K, 101 kPa
Conditions | viscosity [mPa·s]
x2 = 0.1367 | 3.264 ± 0.045
x2 = 0.2072 | 3.003 ± 0.042
x2 = 0.3253 | 2.63 ± 0.038
x2 = 0.3731 | 2.455 ± 0.036
x2 = 0.5105 | 2.096 ± 0.032
x2 = 0.6002 | 1.862 ± 0.029
x2 = 0.7037 | 1.632 ± 0.026
x2 = 0.8127 | 1.451 ± 0.024
x2 = 0.9006 | 1.309 ± 0.022
